Source: patent US10179790B2 (THOMAS HELLEDAYS STIFTELSE FOR MEDICINSK FORSKNING, priority 2014, dated 2019)

Each compound was assayed against MTH1 (Homo sapiens, UniProt P36639) (assay: MTH1 enzymatic assay and IC50 value determination (malachite green, 96- and 384-well format)). Settings: hydrolysis of dGTP (100 μM), MTH1 6 nM, pyrophosphatase-coupled malachite green, 15 minutes at 22° C.
Type: biochemical
Procedure: MTH1 Enzymatic Assay and IC50 Value Determination
MTH1 catalyzes the hydrolysis of dGTP to dGMP and PPi. By coupling the reaction to pyrophosphatase added in excess PPi is converted to Pi that can be detected by using the malachite green assay reagent. Two different formats were used for IC50 determinations in the enzymatic assay, 96- and 384-well format. 96-Well Method:
Briefly, the compound to be analyzed is diluted in DMSO in a 1:3 dilution series generating 12 different compound concentrations giving a final DMSO concentration of 1% in the assay well. MTH1 diluted in assay buffer (100 mM Tris-acetate, 40 mM NaCl, 10 mM magnesium acetate, 1 mM DTT and 0.005% Tween 20) fortified with E. coli pyrophosphatase (0.2 U/ml) is added to a final concentration of 6 nM. dGTP diluted in assay buffer is added to a final concentration of 100 μM. The reaction mixture is incubated for 15 minutes at 22° C. To 100 μl reaction mixture, 25 μl Malachite green assay regent (0.095% Malachite green in 17% H2SO4, 1.5% Ammonium molybdate, 0.17% Tween 20) is added, followed by incubation with shaking for 15 minutes at 22° C. The absorbance of the assay plate is read at 630 nm using a Hidex Sense Multilabel plate reader. The IC50 value is determined by fitting a dose response curve to the data points using nonlinear regression analysis and the equation Y=Bottom+(Top−Bottom)/(1+10^((Log IC50−X)*HillSlope)), where Y is the read absorbance at 630 nm and X is log [compound].
The compounds to be tested are nano-dispensed, in 11 concentrations, directly in assay plates, with a final DMSO concentration <1%. The protocol and the reaction mixture are the same as for the 96-well assay, with a total reaction volume of 50 μl/well to which 10 μl of Malachite green reagent is added. All additions to the assay plates are made with multidrop.

IC50, < 0.2 µM:
Cc1ccc(-c2cc(NCCc3ccc(S(N)(=O)=O)cc3)nc(N)n2)o1 [Example 4, 4-(2-{[2-amino-6-(5-methylfuran-2-yl)pyrimidin-4-yl]amino}ethyl)benzene-1-sulfonamide]
Cc1cccc(-c2cc(NCCNc3ccc(C(N)=O)cn3)nc(N)n2)c1C [Example 5, 6-[(2-{[2-amino-6-(2,3-dimethylphenyl)pyrimidin-4-yl]amino}ethyl)amino]pyridine-3-carboxamide]
CSc1ccc(NC(=O)NCCCCNc2cc(-c3cccc(Cl)c3Cl)nc(N)n2)cc1 [Example 6, 3-(4-{[2-amino-6-(2,3-dichlorophenyl)pyrimidin-4-yl]amino}butyl)-1-[4-(methylsulfanyl)phenyl]urea]
C[S+]([O-])c1ccc(NC(=O)NCCCCNc2cc(-c3cccc(Cl)c3Cl)nc(N)n2)cc1 (centres unmarked) [Example 7, 3-(4-{[2-amino-6-(2,3-dichlorophenyl)pyrimidin-4-yl]amino}butyl)-1-(4-methanesulfinylphenyl)urea]
Cc1cc(-c2cc(NCCNc3ccc([N+](=O)[O-])cn3)nc(N)n2)c(C)cc1F [Example 8, 6-(4-fluoro-2,5-dimethylphenyl)-4-N-{2-[(5-nitropyridin-2-yl)amino]ethyl}pyrimidine-2,4-diamine]
Cc1c(Cl)cccc1-c1cc(NCCc2ccc(C(=O)O)cc2)nc(N)n1 [Example 9, 4-(2-{[2-amino-6-(3-chloro-2-methylphenyl)pyrimidin-4-yl]amino}ethyl)benzoic acid]
CC(=O)c1sccc1-c1cc(NCCc2ccc(S(N)(=O)=O)cc2)nc(N)n1 [Example 10, 4-(2-{[6-(2-acetylthiophen-3-yl)-2-aminopyrimidin-4-yl]amino}ethyl)benzene-1-sulfonamide]
CC(=O)Nc1ccc(NCCNc2cc(-c3cc(C)c(F)cc3C)nc(N)n2)nc1 [Example 11, N-{6-[(2-{[2-amino-6-(4-fluoro-2,5-dimethylphenyl)pyrimidin-4-yl]amino}ethyl)amino]pyridin-3-yl}acetamide]
Cc1cc(-c2cc(NCCNc3ccc(NS(C)(=O)=O)cn3)nc(N)n2)c(C)cc1F [Example 12, N-{6-[(2-{[2-amino-6-(4-fluoro-2,5-dimethylphenyl)pyrimidin-4-yl]amino}ethyl)amino]pyridin-3-yl}methanesulfonamide]
Cc1cccc(-c2cc(NCCNc3cncc(S(N)(=O)=O)c3)nc(N)n2)c1C [Example 14, 5-[(2-{[2-amino-6-(2,3-dimethylphenyl)pyrimidin-4-yl]amino}ethyl)amino]pyridine-3-sulfonamide]
Cc1c(Cl)cccc1-c1cc(N[C@H]2C[C@@H]2c2ccc(S(N)(=O)=O)cc2)nc(N)n1 [Example 15, 4-[(1R,2S)-2-{[2-amino-6-(3-chloro-2-methylphenyl)pyrimidin-4-yl]amino}cyclopropyl]benzene-1-sulfonamide]
CC(C)(C)OC(=O)NCc1ccc(-c2cc(NCCc3ccc(S(C)(=O)=O)cc3)nc(N)n2)s1 [Example 18, tert-butyl N-{[5-(2-amino-6-{[2-(4-methanesulfonylphenyl)ethyl]amino}pyrimidin-4-yl)thiophen-2-yl]methyl}carbamate]
Nc1nc(NCCc2ccc(S(N)(=O)=O)cc2)cc(-c2cccc(O)c2)n1 [Example 27, 4-(2-{[2-amino-6-(3-hydroxyphenyl)pyrimidin-4-yl]amino}ethyl)benzene-1-sulfonamide]
Nc1nc(NCCc2ccc(S(N)(=O)=O)cc2)cc(-c2cccc(OS(=O)(=O)C(F)(F)F)c2)n1 [Example 33, 3-(2-amino-6-{[2-(4-sulfamoylphenyl)ethyl]amino}pyrimidin-4-yl)phenyl trifluoromethanesulfonate]
Cc1cccc(-c2cc(NCCc3ccc(C(=O)O)cc3)nc(N)n2)c1C [Example 34, 4-(2-{[2-amino-6-(2,3-dimethylphenyl)pyrimidin-4-yl]amino}ethyl)benzoic acid]
Nc1nc(NCCNc2ccc3c(c2)NC(=O)CO3)cc(-c2cccc(Cl)c2)n1 [Example 37, 6-[(2-{[2-amino-6-(3-chlorophenyl)pyrimidin-4-yl]amino}ethyl)amino]-3,4-dihydro-2H-1,4-benzoxazin-3-one]
Cc1cccc(-c2cc(NCCNc3nc(N)nc4[nH]cnc34)nc(N)n2)c1C [Example 45, 4-N-{2-[(2-amino-9H-purin-6-yl)amino]ethyl}-6-(2,3-dimethylphenyl)pyrimidine-2,4-diamine]
COC(=O)c1cc(C)nc(NCCNc2cc(-c3cccc(C)c3C)nc(N)n2)n1 [Example 50, methyl 2-[(2-{[2-amino-6-(2,3-dimethylphenyl)pyrimidin-4-yl]amino}ethyl)amino]-6-methylpyrimidine-4-carboxylate]
Cc1cccc(-c2cc(NCCNc3ncnc4[nH]cnc34)nc(N)n2)c1C [Example 51, 6-(2,3-dimethylphenyl)-4-N-{2-[(9H-purin-6-yl)amino]ethyl}pyrimidine-2,4-diamine]
Cc1cc(Cl)c(Cl)cc1-c1cc(NCCc2ccc(S(N)(=O)=O)cc2)nc(N)n1 [Example 67, 4-(2-{[2-amino-6-(4,5-dichloro-2-methylphenyl)pyrimidin-4-yl]amino}ethyl)benzene-1-sulfonamide]
COc1cc(C)c(-c2cc(NCCc3ccc(S(N)(=O)=O)cc3)nc(N)n2)cc1Cl [Example 68, 4-(2-{[2-amino-6-(5-chloro-4-methoxy-2-methylphenyl)pyrimidin-4-yl]amino}ethyl)benzene-1-sulfonamide]
Nc1nc(NCCc2ccc(S(N)(=O)=O)cc2)cc(-c2cccc3[nH]ccc23)n1 [Example 69, 4-(2-{[2-amino-6-(1H-indol-4-yl)pyrimidin-4-yl]amino}ethyl)benzene-1-sulfonamide]
Cc1ccc(F)cc1-c1cc(NCCc2ccc(S(N)(=O)=O)cc2)nc(N)n1 [Example 71, 4-(2-{[2-amino-6-(5-fluoro-2-methylphenyl)pyrimidin-4-yl]amino}ethyl)benzene-1-sulfonamide]
NC(=O)c1ccc(CCNc2cc(-c3cccc(Cl)c3F)nc(N)n2)cc1 [Example 80, 4-(2-{[2-amino-6-(3-chloro-2-fluorophenyl)pyrimidin-4-yl]amino}ethyl)benzamide]
Cc1c(Cl)cccc1-c1cc(NCCc2cccc(C(N)=O)c2)nc(N)n1 [Example 88, 3-[2-[[2-amino-6-(3-chloro-2-methyl-phenyl)pyrimidin-4-yl]amino]ethyl]benzamide]
CN1C(=O)COc2ccc(NCCNc3cc(-c4cccc(Cl)c4Cl)nc(N)n3)cc21 [Example 94, 6-[2-[[2-amino-6-(2,3-dichlorophenyl)pyrimidin-4-yl]amino]ethylamino]-4-methyl-1,4-benzoxazin-3-one]
